Laboratory results taken from paper PMC6102577, “Discovery of Pyrazolo[4,3-c]quinolines Derivatives as Potential Anti-Inflammatory Agents through Inhibiting of NO Production” (Molecules : A Journal of Synthetic Chemistry and Natural …, 2018).
“And” between values parts separate entries of the source, which are not always exact repeats. Equal entries are not always repeated. Where two headings read alike, the source gives them in different places.

What was measured:
[1] = system: RAW 264.7 cells; test: Cell viability (XTT method) of RAW 264.7 cells; type: cell-based; details: compound 10 μM, 24 h, means ± S.D.
Description: To evaluate whether the suppressive effect of compounds on NO production is related to cell viability, Raw 264.7 cells were treated with LPS for 24 h, and washed with 500 μL of phosphate buffer solution (PBS) before resuspended in 1 mL of culture medium. Cell viability tests were run in parallel with NO production assays with an initial cell density of 5 × 10^3 cells/well in the presence or absence of test compounds at 10 μM or 0.1% DMSO as control.

[2] = system: LPS-stimulated NO production in RAW 264.7 cells; test: Inhibition of LPS-induced NO production (nitrite accumulation, Griess reaction) in RAW 264.7 cells; type: cell-based; details: for inhibition at 10 µM: compound 10 μM, read-out: Percent Inhibition of NO Production at 10 μM
Description: Treatment of Raw 264.7 cells with LPS (0.1 μg/mL) for 24 h induced NO production which were assessed by measuring the accumulation of nitrite, a stable metabolite of NO, in the media based on Griess reaction. […] However, compound 2a was also highly cytotoxic, in which the survival rate of RAW 264.7 cells was only 9% at a drug concentration of 10 μM. […] The position of substitution play an important role in which substitution at para-position is usually more favorable than its ortho- or meta- counterpart in the inhibitory activity on the LPS-induced NO production. […] Various substituted groups have been introduced on the para-position of the phenyl ring.
Raw 264.7 cells, purchased from Bioresource Collection and Research Center, Taiwan, were cultured in DMEM, supplemented with 5% fetal bovine serum, 100 units/mL of penicillin, 100 μg/mL of streptomycin, 2 mM L-glutamine, and 1 mM non-essential amino acids in a 10-cm plate at a density of 1 × 10^6 cells/mL, at 37 °C in a humidified atmosphere containing 5% CO2.
Nitrite was measured by adding 100 μL of the Griess reagent (1% sulfanilamide and 0.1% N-(1-naphthyl)ethylenediamine dihydrochloride in 5% phosphoric acid) to 100 μL of medium for 5 min. The optical density at 550 nm (OD550) was measured with a microplate reader. Concentrations were calculated by comparison with the OD550 of a standard solution of sodium nitrite prepared in culture medium.

[3] = system: COX-2 protein expression; test: LPS-inducible COX-2 protein expression in RAW 264.7 cells (western blot); type: cell-based, murine; details: pretreated 2 h, LPS 0.1 μg/mL 24 h
Description: The effects of compounds 2i and 2m on iNOS and COX-2 protein expression in LPS stimulated Raw 264.7 cell were assessed by western blot. Briefly, Raw 264.7 cells were pretreated with tested compound for 2 h before stimulation in the presence or absence of LPS (0.1 μg/mL). Cells were harvested and lysed with RIPA lysis buffer (50 mM Tris–Cl, pH 8.0, 150 mM NaCl, 0.1% SDS, 0.5% NP-40, 1% sodiumdeoxycholate, 1 mM phenylmethyl-sulfonylfluoride, 1 mM EDTA, no added proteinase) at 24 h after treatment. The total protein concentration in the cell lysates was measured according to the method described by Bradford. Equal amounts (15 μg) of protein were loaded and separated by using 8% SDS–PAGE and analyzed by western blot (ECL Amersham, Bensheim, Germany). The relative expression of proteins was quantified densitometrically using the software LabWorks 4.5 and was normalized againstβ-actin.
Figure 4 Inhibition of COX-2 expression by compound 2i and 2m in LPS-stimulated RAW 264.7 cells. Cells (5 × 10^5 cells/well) were pretreated with the indicated concentrations of tested compounds for 2 h before incubation with 0.1 μg/mL LPS for 24 h. Cell lysates were then prepared and western blots were performed using an antibody specific for murine COX-2.

[4] = NO-scavenging activity (sodium nitroprusside, nitrite by Griess reaction); details: SNP 2.5 mM, compound 10 μM, light, room temperature, 60 min
Description: NO-scavenging effects of pyrazolo[4,3-c]quinolines 2i and 2m were measured according to the reported method. Sodium nitroprusside (SNP) (2.5 mM) was incubated alone or in combination with tested compound (10 μM) or 1400W(10 μM) in light at room temperature for 60 min.
To understand the inhibitory effects of compounds 2i and 2m on NO production, sodium nitroprusside (SNP) was freshly prepared at […] in PBS was incubated alone or in combination with 10 µM of the different compounds. SNP is an inorganic complex where NO is found as NO^+ and light irradiation is necessary for the release of NO. Therefore, incubation mixtures were incubated in light at room temperature, and nitrite levels were determined after 60 min by Griess reaction.
Figure 1 NO-scavenging effects of 1400W, compounds 2i and 2m. SNP solution (2.5 mM) in PBS was incubated alone or with tested compound (10 μM) or 1400W (10 μM) in the presence of light at room temperature for 60 min.

[5] = system: iNOS mRNA expression; test: LPS-induced iNOS mRNA expression in RAW 264.7 cells (RT-PCR); type: cell-based; details: pretreated 2 h, LPS 0.1 μg/mL
Source text: Total RNA was extracted by Trizol-Reagent (Invirogen, Carlsbad, CA, USA) according to the manufacturer’s manual. One microgram of RNA was used for the reverse transcription of first strand cDNA using the oligo dT primers. Five microliters of cDNA were used for the amplification of iNOS and GAPDH (glyceraldehyde 3-phosphate dehydrogenase) mRNA expression. The primers for rat iNOS are as follows, forward: 5′-ACTGCGTCGCTTCATTAGGT-3′ and reverse: 5′-TAGGCAAGCGCTTTACCACT-3′. The primers for rat glyceraldehydes 3-phosphate dehydrogenase are as follows, forward: 5′-ATGGCACAGTCAAGGCTGAGA-3′ reverse: 5′-AGACGCCAGTAGACTCCACGAC-3′. The amplicons were electrophoresed on a 3% agarose gel and band intensities were measured using a spectrophotometer (Thermo Fisher Scientific, Waltham, MA, USA) and normalized against GAPDH.
Figure 3 Inhibitory effects of compound 2i and 2m on LPS-induced iNOS mRNA expression. Cells (5 × 10^5 cells/well) were pretreated with the indicated concentrations of tested compounds for 2 h before incubation with 0.1 μg/mL LPS for 9 h. Total RNA was prepared for RT-PCR analysis of iNOS mRNA expression in LPS-stimulated RAW 264.7 cells. GAPDH were used as internal controls for the RT-PCR assays3.4. Inhibition of LPS-inducible COX-2 expression.

[6] = Mus musculus, RAW264.7, 24 h, RAW 264.7 cells, LPS 0.1 μg/mL 24 h, means ± S.D., read-out: IC50 (inhibition of LPS-induced NO production)
[7] = Mus musculus, RAW264.7, training dataset, negative logarithm of IC50 values, read-out: Observed pIC50 (converted)
[8] = Mus musculus, RAW264.7, RAW 264.7 cells, LPS 0.1 μg/mL 24 h, means ± S.D.
[9] = Mus musculus, RAW264.7, test dataset, negative logarithm of IC50 values, read-out: Observed pIC50 (converted)
[10] = Mus musculus, RAW264.7, RAW 264.7 cells, LPS 0.1 μg/mL 24 h, means ± S.D., read-out: IC50 (inhibition of LPS-induced NO production)

IC50 [2, 6]	IC50 [2, 7]	IC50 [2, 9]	melting point	IC50 ([2]; RAW 264.7 cells, LPS 0.1 μg/mL 24 h, means ± S.D., read-out: IC50 (inhibition of LPS-induced NO production))	Structure (SMILES)	Cell Survival Rate at 10 μM [1]	inhibition at 10 µM [2, 8]	IC50 [2, 10]	Inhibition of LPS-induced COX-2 protein expression [3]	NO-scavenging effect (levels of nitrite from SNP) [4]	Inhibition of LPS-stimulated iNOS mRNA expression [5]
390 ± 80 nM	390 nM	–	–	–	Nc1n[nH]c2c1c(Nc1ccccc1)nc1ccccc12 [Compound 2a, 3-Amino-4-phenylamino-1H-pyrazolo[4,3-c]quinoline]	9% and 9.09 ± 0.24%	81.7 ± 0.99%	–	–	–	–
420 ± 110 nM	420 nM	–	–	–	Nc1n[nH]c2c1c(Nc1ccccc1O)nc1ccccc12 [Compound 2b]	53.48 ± 1.53%	103 ± 6.55%	–	–	–	–
770 ± 230 nM	–	770 nM	–	–	Nc1n[nH]c2c1c(Nc1cccc(O)c1)nc1ccccc12 [Compound 2d]	81.70 ± 0.09%	93.5 ± 7.57%	–	–	–	–
770 nM	–	720 nM	184 to 186 °C	720 ± 180 nM	COc1cccc(Nc2nc3ccccc3c3[nH]nc(N)c23)c1 [Compound 2e, 3-Amino-4-(3-methoxyphenylamino)-1H-pyrazolo[4,3-c]quinoline]	94.32 ± 0.49%	101 ± 1.31%	–	–	–	–
290 ± 60 nM	–	290 nM	> 380 °C	–	CC(=O)c1cccc(Nc2nc3ccccc3c3[nH]nc(N)c23)c1 [Compound 2f, 3-Amino-4-(3-acetylphenylamino)-1H-pyrazolo[4,3-c]quinoline]	94.37 ± 0.36%	99.1 ± 2.16%	–	–	–	–
320 ± 50 nM	320 nM	–	–	–	Nc1n[nH]c2c1c(Nc1ccc(Cl)cc1)nc1ccccc12 [Compound 2g]	81.61 ± 0.14%	104 ± 6.71%	–	–	–	–
410 ± 70 nM	–	410 nM	–	–	Nc1n[nH]c2c1c(Nc1ccc(F)cc1)nc1ccccc12 [Compound 2h]	89.99 ± 0.02%	94.8 ± 9.47%	–	–	–	–
920 ± 50 nM	920 nM	–	–	–	Nc1ccc(Nc2nc3ccccc3c3[nH]nc(N)c23)cc1 [Compound 2j]	90.26 ± 0.05%	95.1 ± 3.75%	–	–	–	–
480 ± 140 nM	–	480 nM	–	–	COc1ccc(Nc2nc3ccccc3c3[nH]nc(N)c23)cc1 [Compound 2k]	90.57 ± 0.03%	90.8 ± 11.9%	–	–	–	–
290 ± 80 nM	290 nM	–	–	–	CC(=O)c1ccc(Nc2nc3ccccc3c3[nH]nc(N)c23)cc1 [Compound 2l]	87.80 ± 0.11%	102 ± 6.49%	–	–	–	–
220 ± 70 nM	250 nM	–	–	–	Nc1n[nH]c2c1c(Nc1ccc(C(=O)O)cc1)nc1ccccc12 [Compound 2m, 4-(3-amino-1H-pyrazolo[4,3-c]quinolin-4-ylamino)benzoic acid]	85.42 ± 0.77%	87.7 ± 9.93%	–	effectively suppressed the induction of COX-2 protein expression by LPS	did not affect the levels of nitrite	inhibited the LPS-stimulated iNOS mRNA production in a dose-dependent manner
360 ± 90 nM	360 nM	–	–	–	Nc1n[nH]c2c1c(Nc1ccc(C(F)(F)F)cc1)nc1ccccc12 [Compound 2n]	69.14 ± 0.62%	107 ± 2.48%	–	–	–	–
470 ± 70 nM	470 nM	–	–	–	Cc1ccc(Nc2nc3ccccc3c3[nH]nc(N)c23)cc1 [Compound 2o]	84.53 ± 0.04%	100 ± 3.02%	–	–	–	–
400 ± 90 nM	400 nM	–	–	–	Nc1n[nH]c2c1c(Nc1ccc([N+](=O)[O-])cc1)nc1ccccc12 [Compound 2p]	90.86 ± 0.32%	89.11 ± 0.86%	–	–	–	–
360 ± 80 nM	360 nM	–	269 to 271 °C	–	CSc1ccc(Nc2nc3ccccc3c3[nH]nc(N)c23)cc1 [Compound 2q, 3-Amino-4-(4-methylthiophenylamino)-1H-pyrazolo[4,3-c]quinoline]	89.62 ± 0.05%	102 ± 7.01%	–	–	–	–
350 ± 60 nM	350 nM	–	161 to 162 °C	–	COc1cc(Nc2nc3ccccc3c3[nH]nc(N)c23)cc(OC)c1OC [Compound 2r, 3-Amino-4-(3,4,5-trimethoxyphenylamino)-1H-pyrazolo[4,3-c]quinoline]	85.24 ± 0.04%	107 ± 2.58%	–	–	–	–
–	–	–	–	–	CC(=N)NCc1cccc(CN)c1.Cl.Cl [Compound 1400w, N-[[3-(Aminomethyl)-phenyl]methyl]-ethanimidamide dihydrochloride, reference compound]	99.54 ± 2.51%	102 ± 2.16%	200 ± 20 nM	–	did not affect the levels of nitrite	–

Structure (SMILES)	IC50 [2, 6]	IC50 [2, 7]	IC50 [2, 9]	melting point	IC50 ([2]; RAW 264.7 cells, LPS 0.1 μg/mL 24 h, means ± S.D., read-out: IC50 (inhibition of LPS-induced NO production))	Cell Survival Rate at 10 μM [1]	inhibition at 10 µM [2, 8]	IC50 [2, 10]	Inhibition of LPS-induced COX-2 protein expression [3]	NO-scavenging effect (levels of nitrite from SNP) [4]	Inhibition of LPS-stimulated iNOS mRNA expression [5]
COc1ccccc1Nc1nc2ccccc2c2[nH]nc(N)c12 [Compound 2c, 3-Amino-4-(2-methoxyphenylamino)-1H-pyrazolo[4,3-c]quinoline]	–	–	490 nM	210 to 211 °C	–	47.31 ± 1.67%	82.2 ± 6.49%	490 ± 140 nM	–	–	–
